Where a name gives a salt, the structure may show the parent alone. Read-outs that look alike come from different tables or passages of the source.
Assays:
[1] = test system: AGS cells; experiment: Cell viability in AGS cells (CellTiter Glo2, 8-point dose response, 4 days); format: cell-based, human
Description: AGS cells were treated with DMSO (no drug control) or each compound in Table 5 in an 8-point dose response for 4 days. Cell viability was measured using CellTiter Glo2. The IC50 of each compound was determined using CDD Vault.

[2] = test system: MV-4-11 cells; experiment: Cell viability in MV-4-11 cells (CellTiter Glo2, 4 days); format: cell-based; conditions: Homo sapiens, MV4-11, 96 h
Description: Approximately 10,000 MV-4-11 cells per well of a 96-well plate were treated with DMSO (no drug control) or each compound in Table 6 in an 8-point dose response for 4 days. Cell viability was measured using CellTiter Glo2. The IC50 of each compound was determined using CDD Vault.

[3] = test system: RS4;11 cells; experiment: Cell viability in RS4;11 cells (CellTiter Glo2, 4 days); format: cell-based; conditions: Homo sapiens, 96 h
Description: Approximately 10,000 RS4;11 cells per well of a 96-well plate were treated with DMSO (no drug control) or each compound in Table 6 in an 8-point dose response for 4 days. Cell viability was measured using CellTiter Glo2. The IC50 of each compound was determined using CDD Vault.

Row | SMILES | IC50 [1] | IC50 ([1]; Homo sapiens, AGS, 96 h) | IC50 [2] | IC50 [3] | IC50 ([1]; Homo sapiens, 96 h)
1 | CCC(=O)N1CCc2cc(-c3ccc(C(=O)NCc4cccnc4)cc3)cc(C)c21 [Compound I-17, 4-(7-methyl-1-propionylindolin-5-yl)-N-(pyridin-3-ylmethyl)benzamide] | 1020 nM | 1050 nM | 670 nM | 270 nM | 
2 | CCC(=O)N1CCc2cc(-c3ccc(C(=O)NCc4cccnc4)cc3)ccc21 [Compound I-43, 4-(1-propionylindolin-5-yl)-N-(pyridin-3-ylmethyl) benzamide] | 2360 nM | 2480 nM | 2930 nM | 606 nM | 
3 | CCC(=O)N(C)c1ccc(-c2ccc(C(=O)NCc3cccnc3)cc2)cc1 [Compound I-45, 4′-(N-methylpropionamido)-N-(pyridin-3-ylmethyl)-[1,1′-biphenyl]-4-carboxamide] | 4290 nM | 4450 nM | 218 nM | 689 nM | 
4 | CCC(=O)N1CCc2cc(-c3ccc(C(=O)NCc4cccnc4)cn3)ccc21 [Compound I-54, 6-(1-propionylindolin-5-yl)-N-(pyridin-3-ylmethyl)nicotinamide] | > 16900 nM | > 17000 nM | 10400 nM | 4920 nM | 
5 | CCC(=O)N1CCc2c1ccc(-c1ccc(C(=O)NCc3cccnc3)cc1)c2C [Compound I-80, 4-(4-methyl-1-propionylindolin-5-yl)-N-(pyridin-3-ylmethyl)benzamide] | 653 nM | 490 nM | 565 nM | 886 nM | 
6 | CCC(=O)N1CCc2cc(-c3ccc(C(=O)NCc4cccnc4)c(F)c3)ccc21 [Compound I-98, 2-fluoro-4-(1-propionylindolin-5-yl)-N-(pyridin-3-ylmethyl) benzamide] |  |  | 845 nM | > 30000 nM | 
7 | CC(=O)N(C)c1ccc(-c2ccc(C(=O)NCc3cccnc3)nc2)cc1 [Compound I-202, 5-(4-(N-methylacetamido)phenyl)-N-(pyridin-3-ylmethyl)picolinamide] | 17500 nM | 10300 nM | 1470 nM | 2550 nM | 
8 | CCC(=O)N(C)c1ccc(-c2ccc(C(=O)NCc3cccnc3)cc2)c(Cl)c1 [Compound I-224, 2′-chloro-4′-(N-methylpropionamido)-N-(pyridin-3-ylmethyl)-[1,1′-biphenyl]-4-carboxamide] |  | 1480 nM | 1100 nM | 5320 nM | 
9 | CCC(=O)N(C)c1ccc(-c2ccc(C(=O)NCc3cccnc3)cc2)cc1Cl [Compound I-225, 3′-chloro-4′-(N-methylpropionamido)-N-(pyridin-3-ylmethyl)-[1,1′-biphenyl]-4-carboxamide] |  | 1090 nM | 613 nM | 237 nM | 
10 | CCC(=O)N(C)Cc1ccc(-c2ccc(C(=O)NCc3cccnc3)cc2)cc1 [Compound I-228, 4′-((N-methylpropionamido)methyl)-N-(pyridin-3-ylmethyl)-[1,1′-biphenyl]-4-carboxamide] |  | 3810 nM | 765 nM | 1930 nM | 
11 | CCCC(=O)N(C)c1ccc(-c2ccc(C(=O)NCc3cccnc3)cc2)cc1 [Compound I-230, 4′-(N-methylbutyramido)-N-(pyridin-3-ylmethyl)-[1,1′-biphenyl]-4-carboxamide] |  | 4570 nM |  |  | 
12 | CCOC(=O)N(C)c1ccc(-c2ccc(C(=O)NCc3cccnc3)cc2)cc1 [Compound I-231, ethyl methyl(4′-((pyridin-3-ylmethyl)carbamoyl)-[1,1′-biphenyl]-4-yl)carbamate] |  | 3410 nM | 741 nM | 2920 nM | 
13 | CCC(=O)N(C)c1ccc(-c2ccc(C(=O)NCc3cccnc3)cn2)cc1C [Compound I-232, 6-(3-methyl-4-(N-methylpropionamido)phenyl)-N-(pyridin-3-ylmethyl)nicotinamide] |  | 1280 nM | 1220 nM | 231 nM | 
14 | CCC(=O)N(C)c1ccc(-c2ccc(C(=O)NCc3cncc(F)c3)cc2)cc1 [Compound I-234] |  | > 30000 nM |  |  | 
15 | CCC(=O)N(C)c1ccc(-c2ccc(C(=O)NCc3cncs3)cc2)cc1 [Compound I-235] |  | > 30000 nM |  |  | 
16 | CCC(=O)N(C)c1ccc(-c2ccc(C(=O)NCc3cscn3)cc2)cc1 [Compound I-236] |  | > 30000 nM |  |  | 
17 | CCC(=O)N(C)c1ccc(-c2ccc(C(=O)NCc3cncc(C)c3)cc2)cc1 [Compound I-237] |  | 6690 nM |  |  | 
18 | CCC(=O)N(C)c1ccc(-c2ccc(C(=O)NCc3cnccc3C)cc2)cc1 [Compound I-238] |  | > 30000 nM |  |  | 
19 | CCC(=O)N(C)c1ccc(-c2ccc(C(=O)NCc3ccccc3)cc2)cc1 [Compound I-239] |  | > 30000 nM |  |  | 
20 | CN(C(=O)c1ccccc1)c1ccc(-c2ccc(C(=O)NCc3cccnc3)cc2)cc1 [Compound I-240] |  | 5110 nM |  |  | 
21 | CCC(=O)N(C)c1ccc(-c2nc(C(=O)NCc3cccnc3)cs2)cc1 [Compound I-241, 2-(4-(N-methylpropionamido)phenyl)-N-(pyridin-3-ylmethyl)thiazole-4-carboxamide] |  | > 30000 nM | 3920 nM | 10500 nM | 
22 | CN(C(=O)c1cocn1)c1ccc(-c2ccc(C(=O)NCc3cccnc3)cc2)cc1 [Compound I-245] |  | 5160 nM |  |  | 
23 | CCC(=O)N(C)c1ccc(-c2ccc(C(=O)NCc3cccnc3)cn2)c(C)c1 [Compound I-246, 6-(2-methyl-4-(N-methylpropionamido)phenyl)-N-(pyridin-3-ylmethyl)nicotinamide] |  | 12100 nM |  |  | 
24 | CCC(=O)N(C)c1ccc(-c2ccc(C(=O)NCc3cccnc3)cc2)cc1OC [Compound I-248, 3′-methoxy-4′-(N-methylpropionamido)-N-(pyridin-3-ylmethyl)-[1,1′-biphenyl]-4-carboxamide] |  | 3590 nM |  |  | 
25 | CN(C(=O)CC#N)c1ccc(-c2ccc(C(=O)NCc3cccnc3)cc2)cc1 [Compound I-249] |  | > 18400 nM |  |  | 
26 | CC(C)C(=O)N(C)c1ccc(-c2ccc(C(=O)NCc3cccnc3)cc2)cc1 [Compound I-250] |  | 1870 nM |  |  | 
27 | CCN(C)C(=O)c1ccc(-c2ccc(C(=O)NCc3cccnc3)cc2)cc1 [Compound I-251] |  | 1650 nM |  |  | 
28 | CCC(=O)N1CCc2cc(-c3ccc(C(=O)NCC4=CC[NH2+]CC4)cc3)ccc21 [Mono- formate of I-69, Monoformate 4-(1-propionylindolin-5-yl)-N-((1,2,3,6-tetrahydropyridin-4-yl)methyl)benzamide] |  |  |  |  | > 30000 nM

Reference: US12522587B2, “Cancer treatments targeting cancer stem cells” (Remedy Plan, Inc., priority 2018, dated 2026)
